Like-named read-outs stand apart in the source and are kept apart here.
Legend:
ACK1 = molecular target: T1, ACK1 (Homo sapiens, UniProt Q07912); experiment: Kinome profiler screen; assay type: biochemical; conditions: at 20,000 nM inhibitor; kinase activity remaining
T1 construct: purchased Millipore KinaseProfiler

ALK = molecular target: T2, ALK (Homo sapiens, UniProt Q9UM73); experiment: Kinome profiler screen; assay type: biochemical; conditions: at 20,000 nM inhibitor; kinase activity remaining
T2 construct: purchased Millipore KinaseProfiler

AMPKα2 = molecular target: T3, AMPKα2 (Homo sapiens, UniProt P54646); experiment: Kinome profiler screen; assay type: biochemical; conditions: at 20,000 nM inhibitor; kinase activity remaining
T3 construct: purchased Millipore KinaseProfiler

Aurora-B = molecular target: T4, Aurora-B (Homo sapiens, UniProt Q96GD4); experiment: Kinome profiler screen; assay type: biochemical; conditions: at 20,000 nM inhibitor; kinase activity remaining
T4 construct: purchased Millipore KinaseProfiler

Bmx = molecular target: T5, Bmx (Homo sapiens, UniProt P51813); experiment: Kinome profiler screen; assay type: biochemical; conditions: at 20,000 nM inhibitor; kinase activity remaining
T5 construct: purchased Millipore KinaseProfiler

BTK(R28H) = molecular target: T6, BTK(R28H) (Homo sapiens, UniProt Q06187, R28H); experiment: Kinome profiler screen; assay type: biochemical; conditions: at 20,000 nM inhibitor; kinase activity remaining
T6 construct: purchased Millipore KinaseProfiler

CHK1 = molecular target: T7, CHK1 (Homo sapiens, UniProt O14757); experiment: Kinome profiler screen; assay type: biochemical; conditions: at 20,000 nM inhibitor; kinase activity remaining
T7 construct: purchased Millipore KinaseProfiler

CHK2 = molecular target: T8, CHK2 (Homo sapiens, UniProt O96017); experiment: Kinome profiler screen; assay type: biochemical; conditions: at 20,000 nM inhibitor; kinase activity remaining
T8 construct: purchased Millipore KinaseProfiler

DYRK2 = molecular target: T9, DYRK2 (Homo sapiens, UniProt Q92630); experiment: Kinome profiler screen; assay type: biochemical; conditions: at 20,000 nM inhibitor; kinase activity remaining
T9 construct: purchased Millipore KinaseProfiler

EphA2 = molecular target: T10, EphA2 (Homo sapiens, UniProt P29317); experiment: Kinome profiler screen; assay type: biochemical; conditions: at 20,000 nM inhibitor; kinase activity remaining
T10 construct: purchased Millipore KinaseProfiler

EphA8 = molecular target: T11, EphA8 (Homo sapiens, UniProt P29322); experiment: Kinome profiler screen; assay type: biochemical; conditions: at 20,000 nM inhibitor; kinase activity remaining
T11 construct: purchased Millipore KinaseProfiler

EphB1 = molecular target: T12, EphB1 (Homo sapiens, UniProt P54762); experiment: Kinome profiler screen; assay type: biochemical
T12 construct: purchased Millipore KinaseProfiler

Fes = molecular target: T13, Fes (Homo sapiens, UniProt P07332); experiment: Kinome profiler screen; assay type: biochemical; conditions: at 20,000 nM inhibitor; kinase activity remaining
T13 construct: purchased Millipore KinaseProfiler

FGFR2(N549H) = molecular target: T14, FGFR2(N549H) (Homo sapiens, UniProt P21802, N549H); experiment: Kinome profiler screen; assay type: biochemical; conditions: at 20,000 nM inhibitor; kinase activity remaining
T14 construct: purchased Millipore KinaseProfiler

FGFR4 = molecular target: T15, FGFR4 (Homo sapiens, UniProt P22455); experiment: Kinome profiler screen; assay type: biochemical; conditions: at 20,000 nM inhibitor; kinase activity remaining
T15 construct: purchased Millipore KinaseProfiler

Hck activated = molecular target: T16, Hck activated (Homo sapiens, UniProt P08631); experiment: Kinome profiler screen; assay type: biochemical; conditions: at 20,000 nM inhibitor; kinase activity remaining
T16 construct: purchased Millipore KinaseProfiler

Itk = molecular target: T17, Itk (Homo sapiens, UniProt Q08881); experiment: Kinome profiler screen; assay type: biochemical; conditions: at 20,000 nM inhibitor; kinase activity remaining
T17 construct: purchased Millipore KinaseProfiler

Lck activated = molecular target: T18, Lck activated (Homo sapiens, UniProt P06239); experiment: Kinome profiler screen; assay type: biochemical; conditions: at 20,000 nM inhibitor; kinase activity remaining
T18 construct: purchased Millipore KinaseProfiler

LKB1 = molecular target: T19, LKB1 (Homo sapiens, UniProt Q15831); experiment: Kinome profiler screen; assay type: biochemical; conditions: at 20,000 nM inhibitor; kinase activity remaining
T19 construct: purchased Millipore KinaseProfiler

MAPKAP-K3 = molecular target: T20, MAPKAP-K3 (Homo sapiens, UniProt Q16644); experiment: Kinome profiler screen; assay type: biochemical; conditions: at 20,000 nM inhibitor; kinase activity remaining
T20 construct: purchased Millipore KinaseProfiler

Mer = molecular target: T21, Mer (Homo sapiens, UniProt Q12866); experiment: Kinome profiler screen; assay type: biochemical; conditions: at 20,000 nM inhibitor; kinase activity remaining
T21 construct: purchased Millipore KinaseProfiler

Met(Y1248D) = molecular target: T22, Met(Y1248D) (Homo sapiens, UniProt P08581, Y1230D); experiment: Kinome profiler screen; assay type: biochemical; conditions: at 20,000 nM inhibitor; kinase activity remaining
T22 construct: purchased Millipore KinaseProfiler

MKK7β = molecular target: T23, MKK7β (Homo sapiens, UniProt O14733); experiment: Kinome profiler screen; assay type: biochemical; conditions: at 20,000 nM inhibitor; kinase activity remaining
T23 construct: purchased Millipore KinaseProfiler

p70S6K = molecular target: T24, p70S6K (Homo sapiens, UniProt P23443); experiment: Kinome profiler screen; assay type: biochemical; conditions: at 20,000 nM inhibitor; kinase activity remaining
T24 construct: purchased Millipore KinaseProfiler

PAK3 = molecular target: T25, PAK3 (Homo sapiens, UniProt O75914); experiment: Kinome profiler screen; assay type: biochemical; conditions: at 20,000 nM inhibitor; kinase activity remaining
T25 construct: purchased Millipore KinaseProfiler

PAK6 = molecular target: T26, PAK6 (Homo sapiens, UniProt Q9NQU5); experiment: Kinome profiler screen; assay type: biochemical; conditions: at 20,000 nM inhibitor; kinase activity remaining
T26 construct: purchased Millipore KinaseProfiler

PDK1 = molecular target: T27, PDK1 (Homo sapiens, UniProt O15530); experiment: Kinome profiler screen; assay type: biochemical; conditions: at 20,000 nM inhibitor; kinase activity remaining
T27 construct: purchased Millipore KinaseProfiler

[1] = molecular target: T28, PI3 Kinase (p110δ/p85α)(m) (Mus musculus, UniProt O35904); experiment: Kinome profiler screen; assay type: biochemical; conditions: at 20,000 nM inhibitor; kinase activity remaining
T28 construct: purchased Millipore KinaseProfiler

PKA = molecular target: T29, PKA (Homo sapiens, UniProt P17612); experiment: Kinome profiler screen; assay type: biochemical; conditions: at 20,000 nM inhibitor; kinase activity remaining
T29 construct: purchased Millipore KinaseProfiler

PRK2 = molecular target: T30, PRK2 (Homo sapiens, UniProt Q16513); experiment: Kinome profiler screen; assay type: biochemical; conditions: at 20,000 nM inhibitor; kinase activity remaining
T30 construct: purchased Millipore KinaseProfiler

SGK3 = molecular target: T31, SGK3 (Homo sapiens, UniProt Q96BR1); experiment: Kinome profiler screen; assay type: biochemical; conditions: at 20,000 nM inhibitor; kinase activity remaining
T31 construct: purchased Millipore KinaseProfiler

TAK1 = molecular target: T32, TAK1 (Homo sapiens, UniProt O43318); experiment: Kinome profiler screen; assay type: biochemical; conditions: at 20,000 nM inhibitor; kinase activity remaining
T32 construct: purchased Millipore KinaseProfiler

TAO1 = molecular target: T33, TAO1 (Homo sapiens, UniProt Q7L7X3); experiment: Kinome profiler screen; assay type: biochemical; conditions: at 20,000 nM inhibitor; kinase activity remaining
T33 construct: purchased Millipore KinaseProfiler

TGFBR1 = molecular target: T34, TGFBR1 (Homo sapiens, UniProt P36897); experiment: Kinome profiler screen; assay type: biochemical; conditions: at 20,000 nM inhibitor; kinase activity remaining
T34 construct: purchased Millipore KinaseProfiler

TSSK1 = molecular target: T35, TSSK1 (Homo sapiens, UniProt Q9BXA7); experiment: Kinome profiler screen; assay type: biochemical; conditions: at 20,000 nM inhibitor; kinase activity remaining
T35 construct: purchased Millipore KinaseProfiler

WNK3 = molecular target: T36, WNK3 (Homo sapiens, UniProt Q9BYP7); experiment: Kinome profiler screen; assay type: biochemical; conditions: at 20,000 nM inhibitor; kinase activity remaining
T36 construct: purchased Millipore KinaseProfiler

Chemical stability = assay type: physicochemical
Protocol: Aqueous solubility (logS) and chemical stability were determined as previously described. Briefly, solutions for aqueous solubility (log S) determination were made by gravimetric methods using a Sartorius AG (Germany) BP 211 D analytical balance. Dry borosilicate capillary tubes (Büchi, Switzerland) were weighed and various amounts of compound (ranging from 1.2–1.5 mg) or the hydrochloride hydrate form (ranging from 10–20 mg) were added to the tared tubes, then water added to create solutions ranging in concentrations from […]. Tubes containing the samples were mixed to ensure wetting and incubated at 37°C for 24 h. Aliquots were collected from each tube, centrifuged at 12,000 g-min, and analyzed by HPLC. Concentrations were calculated using area under the peak (260 nm) at the appropriate retention time relative to a standard curve obtained from serial dilutions of each purified compound. […]. The co-solvent was methanol, experimental pH range was 1.7–10.0, temperature was 22±2°C, ionic strength was 0.15 M KCl. Five titrations were used to calculate the pKa using the Yasuda-Shedlovsky technique. […].

[2] = system: sensory perception of electric shock; experiment: Sensory threshold assessment; assay type: in vivo, C57BL/6J mice; conditions: control test

T28 sequence (O35904 whole entry): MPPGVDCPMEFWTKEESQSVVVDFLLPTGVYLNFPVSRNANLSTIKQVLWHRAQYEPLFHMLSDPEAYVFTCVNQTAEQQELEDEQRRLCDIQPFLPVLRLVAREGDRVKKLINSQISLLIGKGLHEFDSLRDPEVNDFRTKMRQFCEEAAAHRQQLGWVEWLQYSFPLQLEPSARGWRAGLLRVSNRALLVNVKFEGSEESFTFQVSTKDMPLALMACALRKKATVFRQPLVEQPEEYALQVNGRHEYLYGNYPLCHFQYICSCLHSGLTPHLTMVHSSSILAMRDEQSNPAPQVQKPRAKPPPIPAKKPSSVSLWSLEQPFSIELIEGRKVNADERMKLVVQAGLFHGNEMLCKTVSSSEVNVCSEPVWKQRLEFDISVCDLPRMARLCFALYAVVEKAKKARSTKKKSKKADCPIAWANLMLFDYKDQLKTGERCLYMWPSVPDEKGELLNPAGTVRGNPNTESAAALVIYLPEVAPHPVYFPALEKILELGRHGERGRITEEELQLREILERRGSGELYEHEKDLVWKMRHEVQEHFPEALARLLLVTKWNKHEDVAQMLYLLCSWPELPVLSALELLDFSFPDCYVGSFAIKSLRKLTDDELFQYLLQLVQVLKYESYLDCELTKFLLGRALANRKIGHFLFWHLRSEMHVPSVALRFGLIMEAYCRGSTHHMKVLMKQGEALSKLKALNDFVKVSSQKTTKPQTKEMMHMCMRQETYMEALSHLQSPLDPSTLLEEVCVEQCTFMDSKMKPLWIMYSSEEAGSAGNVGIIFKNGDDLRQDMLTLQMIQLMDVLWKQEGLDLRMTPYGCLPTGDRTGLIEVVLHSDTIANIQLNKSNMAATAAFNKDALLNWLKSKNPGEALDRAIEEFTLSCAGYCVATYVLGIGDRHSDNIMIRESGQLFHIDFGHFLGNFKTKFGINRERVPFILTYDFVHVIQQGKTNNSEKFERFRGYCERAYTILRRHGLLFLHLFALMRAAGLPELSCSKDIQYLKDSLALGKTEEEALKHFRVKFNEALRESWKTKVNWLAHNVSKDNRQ
T28 sequence (P26450 2-724 partner): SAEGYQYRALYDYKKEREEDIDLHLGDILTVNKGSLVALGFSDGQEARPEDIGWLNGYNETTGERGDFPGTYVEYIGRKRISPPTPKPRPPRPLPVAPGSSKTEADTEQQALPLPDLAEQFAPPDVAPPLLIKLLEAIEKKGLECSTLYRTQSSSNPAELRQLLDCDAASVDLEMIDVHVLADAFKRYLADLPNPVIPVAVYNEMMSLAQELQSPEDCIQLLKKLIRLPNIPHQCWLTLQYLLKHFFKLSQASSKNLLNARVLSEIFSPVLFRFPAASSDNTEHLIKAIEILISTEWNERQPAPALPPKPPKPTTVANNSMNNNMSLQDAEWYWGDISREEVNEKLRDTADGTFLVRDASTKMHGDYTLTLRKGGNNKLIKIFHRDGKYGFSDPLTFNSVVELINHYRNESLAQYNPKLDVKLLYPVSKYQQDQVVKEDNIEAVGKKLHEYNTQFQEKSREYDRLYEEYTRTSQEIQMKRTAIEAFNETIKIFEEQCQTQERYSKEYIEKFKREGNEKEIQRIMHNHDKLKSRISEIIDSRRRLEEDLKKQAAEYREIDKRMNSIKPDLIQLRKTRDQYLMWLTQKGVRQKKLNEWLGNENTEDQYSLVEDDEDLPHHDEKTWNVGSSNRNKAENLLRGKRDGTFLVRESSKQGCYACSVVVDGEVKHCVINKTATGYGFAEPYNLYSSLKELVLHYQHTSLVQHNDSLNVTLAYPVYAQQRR
T30 sequence (Q16513 whole entry): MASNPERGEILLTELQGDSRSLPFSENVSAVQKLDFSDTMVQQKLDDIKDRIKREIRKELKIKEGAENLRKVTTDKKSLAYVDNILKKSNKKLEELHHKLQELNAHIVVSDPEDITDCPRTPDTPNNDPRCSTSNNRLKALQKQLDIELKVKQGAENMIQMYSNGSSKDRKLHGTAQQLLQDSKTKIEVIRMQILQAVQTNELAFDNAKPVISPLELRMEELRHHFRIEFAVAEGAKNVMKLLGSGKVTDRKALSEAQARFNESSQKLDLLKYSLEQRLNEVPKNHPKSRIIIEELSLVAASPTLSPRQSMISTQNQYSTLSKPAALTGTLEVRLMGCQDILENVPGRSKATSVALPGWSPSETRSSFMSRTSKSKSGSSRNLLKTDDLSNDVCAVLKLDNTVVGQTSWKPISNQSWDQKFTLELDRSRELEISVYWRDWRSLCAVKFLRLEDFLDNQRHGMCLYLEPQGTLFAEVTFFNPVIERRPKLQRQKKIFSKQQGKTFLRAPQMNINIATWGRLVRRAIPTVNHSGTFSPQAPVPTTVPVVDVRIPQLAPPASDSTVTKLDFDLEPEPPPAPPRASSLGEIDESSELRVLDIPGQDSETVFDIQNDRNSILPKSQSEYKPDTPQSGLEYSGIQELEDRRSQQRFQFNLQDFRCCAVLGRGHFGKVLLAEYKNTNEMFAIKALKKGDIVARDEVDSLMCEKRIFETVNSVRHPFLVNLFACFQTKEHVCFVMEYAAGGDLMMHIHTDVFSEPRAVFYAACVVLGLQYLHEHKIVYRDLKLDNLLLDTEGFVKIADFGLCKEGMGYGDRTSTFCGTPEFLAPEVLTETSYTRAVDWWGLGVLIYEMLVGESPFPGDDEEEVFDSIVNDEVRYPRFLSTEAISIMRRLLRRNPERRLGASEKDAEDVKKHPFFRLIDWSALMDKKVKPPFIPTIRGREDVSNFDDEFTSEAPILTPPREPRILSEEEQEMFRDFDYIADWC
T26 sequence (Q9NQU5 whole entry): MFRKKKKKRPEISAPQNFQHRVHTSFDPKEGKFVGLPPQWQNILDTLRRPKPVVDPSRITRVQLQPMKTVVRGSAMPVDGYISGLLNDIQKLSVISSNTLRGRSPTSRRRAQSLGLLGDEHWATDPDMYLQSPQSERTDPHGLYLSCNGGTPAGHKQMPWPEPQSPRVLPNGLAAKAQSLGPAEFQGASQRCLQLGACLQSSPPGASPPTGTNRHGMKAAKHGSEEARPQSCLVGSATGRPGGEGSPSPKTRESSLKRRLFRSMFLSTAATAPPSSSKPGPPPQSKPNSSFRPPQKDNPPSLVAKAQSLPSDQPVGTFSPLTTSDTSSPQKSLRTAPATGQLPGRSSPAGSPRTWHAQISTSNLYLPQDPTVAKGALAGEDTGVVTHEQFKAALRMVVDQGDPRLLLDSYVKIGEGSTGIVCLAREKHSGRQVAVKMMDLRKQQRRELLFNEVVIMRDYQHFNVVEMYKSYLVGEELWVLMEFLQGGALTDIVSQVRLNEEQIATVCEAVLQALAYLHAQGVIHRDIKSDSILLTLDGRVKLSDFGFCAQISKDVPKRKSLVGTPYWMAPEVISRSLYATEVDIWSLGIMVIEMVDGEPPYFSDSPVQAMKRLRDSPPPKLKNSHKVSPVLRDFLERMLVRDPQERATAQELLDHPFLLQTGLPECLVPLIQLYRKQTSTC
T6 sequence (Q06187 whole entry R28H): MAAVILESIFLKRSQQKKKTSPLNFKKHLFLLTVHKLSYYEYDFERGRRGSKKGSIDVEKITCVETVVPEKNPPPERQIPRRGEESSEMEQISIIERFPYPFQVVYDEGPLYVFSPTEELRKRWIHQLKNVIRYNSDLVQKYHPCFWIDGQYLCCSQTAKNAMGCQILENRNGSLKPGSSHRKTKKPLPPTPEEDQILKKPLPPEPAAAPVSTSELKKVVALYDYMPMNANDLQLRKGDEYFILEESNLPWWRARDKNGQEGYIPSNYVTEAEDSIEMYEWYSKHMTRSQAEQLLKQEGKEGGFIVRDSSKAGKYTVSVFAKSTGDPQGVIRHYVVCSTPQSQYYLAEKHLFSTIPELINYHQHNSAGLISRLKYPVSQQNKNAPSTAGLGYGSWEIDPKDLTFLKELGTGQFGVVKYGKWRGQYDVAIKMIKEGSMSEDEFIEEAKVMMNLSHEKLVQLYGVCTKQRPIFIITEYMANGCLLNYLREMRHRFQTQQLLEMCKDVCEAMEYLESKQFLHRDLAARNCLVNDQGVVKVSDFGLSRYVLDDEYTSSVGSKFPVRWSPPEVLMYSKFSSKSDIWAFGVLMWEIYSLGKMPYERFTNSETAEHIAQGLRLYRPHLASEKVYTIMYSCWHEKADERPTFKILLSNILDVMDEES
T24 sequence (P23443 whole entry): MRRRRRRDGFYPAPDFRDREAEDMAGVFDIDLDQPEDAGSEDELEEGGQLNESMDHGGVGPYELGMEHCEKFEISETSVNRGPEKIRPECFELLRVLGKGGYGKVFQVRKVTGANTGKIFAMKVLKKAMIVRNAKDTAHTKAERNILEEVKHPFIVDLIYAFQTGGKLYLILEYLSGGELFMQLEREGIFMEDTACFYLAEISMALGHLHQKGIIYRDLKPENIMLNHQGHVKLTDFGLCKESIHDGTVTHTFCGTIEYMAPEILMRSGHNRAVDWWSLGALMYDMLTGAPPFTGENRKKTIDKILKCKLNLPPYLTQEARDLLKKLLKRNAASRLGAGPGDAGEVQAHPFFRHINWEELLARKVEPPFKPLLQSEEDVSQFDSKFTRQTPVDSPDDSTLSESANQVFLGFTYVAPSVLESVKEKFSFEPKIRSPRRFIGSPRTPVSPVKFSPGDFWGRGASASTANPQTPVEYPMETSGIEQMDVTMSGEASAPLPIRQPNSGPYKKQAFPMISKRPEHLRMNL
T35 sequence (Q9BXA7 whole entry): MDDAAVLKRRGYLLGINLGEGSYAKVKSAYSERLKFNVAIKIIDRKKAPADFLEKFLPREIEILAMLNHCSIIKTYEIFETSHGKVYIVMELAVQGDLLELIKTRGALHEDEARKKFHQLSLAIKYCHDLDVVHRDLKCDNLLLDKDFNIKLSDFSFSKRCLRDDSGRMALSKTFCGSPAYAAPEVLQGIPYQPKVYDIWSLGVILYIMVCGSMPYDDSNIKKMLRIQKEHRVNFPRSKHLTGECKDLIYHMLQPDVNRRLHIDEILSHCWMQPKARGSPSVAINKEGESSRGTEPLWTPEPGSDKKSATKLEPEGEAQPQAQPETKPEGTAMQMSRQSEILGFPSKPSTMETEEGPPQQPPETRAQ

Compound | activity at 20 µM (ACK1) [%] | activity at 20 µM (ALK) [%] | activity at 20 µM (AMPKα2) [%] | activity at 20 µM (Aurora-B) [%] | activity at 20 µM (Bmx) [%] | activity at 20 µM (BTK(R28H)) [%] | activity at 20 µM (CHK1) [%] | activity at 20 µM (CHK2) [%] | activity at 20 µM (DYRK2) [%] | activity at 20 µM (EphA2) [%] | activity at 20 µM (EphA8) [%] | activity at 20 µM (Fes) [%] | activity at 20 µM (FGFR2(N549H)) [%] | activity at 20 µM (FGFR4) [%] | activity at 20 µM (Hck activated) [%] | activity at 20 µM (Itk) [%] | activity at 20 µM (Lck activated) [%] | activity at 20 µM (LKB1) [%] | activity at 20 µM (MAPKAP-K3) [%] | activity at 20 µM (Mer) [%] | further results
CN(C)c1cc(-c2ccncc2)c(-c2ccc3ccccc3c2)nn1 [MW108, N, N-dimethyl-6-(naphthalen-2-yl)-5-(pyridin-4-yl)pyridazin-3-amine] | 100 | 105 | 102 | 134 | 87 | 101 | 94 | 97 | 108 | 83 | 95 | 111 | 76 | 89 | 97 | 90 | 70 | 102 | 102 | 98 | activity at 20 µM (EphB1): 92%; activity at 20 µM (Met(Y1248D)): 93%; activity at 20 µM (MKK7β): 122%; activity at 20 µM (p70S6K): 92%; activity at 20 µM (PAK3): 78%; activity at 20 µM (PAK6): 99%; activity at 20 µM (PDK1): 104%; activity at 20 µM [1]: 100%; activity at 20 µM (PKA): 74%; activity at 20 µM (PRK2): 103%; activity at 20 µM (SGK3): 104%; activity at 20 µM (TAK1): 102%; activity at 20 µM (TAO1): 92%; activity at 20 µM (TGFBR1): 76%; activity at 20 µM (TSSK1): 101%; activity at 20 µM (WNK3): 91%; Chemical Stability (37ºC; 24 hrs) (Chemical stability; 24 h, 0.0015 M): stable in neutral, base (pH 13), acid (pH 2); sensory threshold [2]: Sensory threshold was not affected regardless of treatment
CN(C)c1cc(-c2ccncc2)c(-c2cccc3ccccc23)nn1 [MW181, N,N-dimethyl-6-(naphthalen-1-yl)-5-(pyridin-4-yl)pyridazin-3-amine] | 106 | 107 | 95 | 114 | 108 | 96 | 115 | 96 | 109 | 91 | 91 | 100 | 96 | 98 | 106 | 91 | 84 | 100 | 99 | 100 | activity at 20 µM (EphB1; at 20,000 nM inhibitor, kinase activity remaining, read-out: % Activity): 100%; activity at 20 µM (Met(Y1248D)): 94%; activity at 20 µM (MKK7β): 116%; activity at 20 µM (p70S6K): 94%; activity at 20 µM (PAK3): 122%; activity at 20 µM (PAK6): 101%; activity at 20 µM (PDK1): 105%; activity at 20 µM [1]: 101%; activity at 20 µM (PKA): 142%; activity at 20 µM (PRK2): 96%; activity at 20 µM (SGK3): 100%; activity at 20 µM (TAK1): 104%; activity at 20 µM (TAO1): 98%; activity at 20 µM (TGFBR1): 113%; activity at 20 µM (TSSK1): 88%; activity at 20 µM (WNK3): 89%; Chemical Stability (37ºC; 24 hrs) (Chemical stability; neutral, base (pH 13), acid (pH 2)): stable in neutral, base (pH 13), acid (pH 2); sensory threshold [2]: Sensory threshold was not affected regardless of treatment
